Results: DBAASP
Converted amounts (≈) assume the structure as drawn. “And” between values parts separate entries of the source, which are not always exact repeats. Identical values can stand only once. Each block holds one compound with its values, some of them ahead of it.

What was measured:
Experiment in all cases: ≥ marks a high value that may be exact or a test limit, other limits are often not marked, values filed in µg/mL are converted to µM
[1] = test system: Escherichia coli KCTC 1682
[2] = test system: Staphylococcus aureus KCTC 1621
[3] = test system: Salmonella typhimurium KCTC 1926
[4] = test system: Bacillus subtilis KCTC 1918
[5] = test system: Listeria monocytogenes KCTC 3710
[6] = test system: Pseudomonas aeruginosa KCTC 1637
[7] = test system: Trichosporon beigelii KCTC 7707
[8] = test system: Mycobacterium tuberculosis H37Rv
[9] = test system: Pseudomonas aeruginosa ATCC 27853
[10] = test system: Staphylococcus aureus ATCC 25923
[11] = test system: Mycobacterium tuberculosis
[12] = test system: Escherichia coli ATCC 25922
[13] = test system: Klebsiella pneumoniae ST258
[14] = test system: Escherichia coli ATCC 11303
[15] = test system: Citrobacter koseri
[16] = test system: Escherichia coli BL21
[17] = test system: Salmonella enterica
[18] = test system: Streptococcus alactolyticus
[19] = test system: Salmonella typhimurium CCRC 12947
[20] = test system: Escherichia coli JM109
[21] = test system: Staphylococcus xylosus
[22] = test system: Staphylococcus aureus CCRC 12652
[23] = test system: Klebsiella pneumoniae CCRC 10694
[24] = test system: Staphylococcus aureus CCRC 15211
[25] = test system: Pseudomonas aeruginosa
[26] = test system: Vibrio parahaemolyticus CCRC 10806
[27] = test system: Enterococcus faecalis ATCC 29212
[28] = test system: Shigella dysenteriae
[29] = test system: Candida albicans ATCC 2002
[30] = test system: Escherichia coli 37
[31] = test system: Candida albicans ATCC 90028
[32] = test system: Candida parapsilosis ATCC 22019
[33] = test system: Enterobacter cloacae ATCC 13047
[34] = test system: Staphylococcus aureus 37
[35] = test system: Klebsiella pneumoniae ATCC 700603
[36] = test system: Staphylococcus aureus 10
[37] = test system: Escherichia coli 218
[38] = test system: Clavibacter michiganensis subsp. michiganensis KACC 20122
[39] = test system: Vibrio cholerae
[40] = test system: Staphylococcus aureus MTCC 9542
[41] = test system: Escherichia coli MG1655
[42] = test system: Staphylococcus aureus ATCC 43300
[43] = test system: Bacillus subtilis MTCC 14416

- MIC [1]: 8 µM (≈ 15.2 µg/mL)
- MIC [2]: 8 µM and 16 µM
- MIC [3]: 1 µM and 2 µM
- MIC [4]: 8 µM and 16 µM
- MIC [5]: 4 µM and 8 µM
- MIC [6]: 2 µM (≈ 3.81 µg/mL)
- MIC [7]: 1 µM and 2 µM
SMILES: CC[C@H](C)[C@H](NC(=O)[C@H](CCCCN)NC(=O)[C@H](CCCCN)NC(=O)[C@H](Cc1ccccc1)NC(=O)[C@H](CC(C)C)NC(=O)[C@H](CCCCN)NC(=O)[C@H](CCCCN)NC(=O)[C@H](CC(C)C)NC(=O)[C@H](CCCCN)NC(=O)[C@H](CCCCN)NC(=O)[C@@H](N)Cc1ccccc1)C(=O)N[C@@H](CC(C)C)C(=O)N[C@@H](CCCCN)C(=O)N[C@@H](CC(C)C)C(=O)N[C@@H](CCCCN)C(N)=O [FKKLKKLFKKILKLK]

- MIC [8]: 18.7 µM (≈ 48.1 µg/mL)
- MIC [9]: > 19.4 µM
- MIC [10]: 12.5 µM (≈ 32.2 µg/mL)
- MIC [11]: 18.7 µM (≈ 48.1 µg/mL)
- MIC [12]: 12.5 µM (≈ 32.2 µg/mL)
- MIC [13]: 19.4 µM (≈ 50 µg/mL)
SMILES: CC[C@H](C)[C@H](NC(=O)[C@H](CC(C)C)NC(=O)[C@H](CCCCN)NC(=O)[C@H](CC(C)C)NC(=O)[C@H](C)NC(=O)CNC(=O)[C@H](CCCCN)NC(=O)[C@H](C)NC(=O)[C@H](CC(C)C)NC(=O)[C@H](C)NC(=O)CNC(=O)[C@H](Cc1c[nH]c2ccccc12)NC(=O)[C@@H](N)Cc1ccccc1)C(=O)NCC(=O)N[C@@H](CO)C(=O)N[C@@H](CC(C)C)C(=O)N[C@@H](Cc1ccccc1)C(=O)N[C@@H](CO)C(=O)N[C@@H](CO)C(=O)N[C@@H](Cc1ccccc1)C(=O)N[C@@H](CO)C(=O)N[C@@H](CCCCN)C(=O)N[C@@H](CCCCN)C(=O)N[C@@H](CC(=O)O)C(=O)O [FWGALAKGALKLIGSLFSSFSKKD]

- MIC [14]: 11 µM (≈ 29.6 µg/mL)
SMILES: CC(C)C[C@H](NC(=O)CNC(=O)CN)C(=O)N[C@@H](CCCCN)C(=O)N[C@@H](CCCCN)C(=O)N[C@@H](CC(C)C)C(=O)NCC(=O)N[C@@H](CCCCN)C(=O)N[C@@H](CCCCN)C(=O)N[C@@H](CC(C)C)C(=O)N[C@@H](CCC(=O)O)C(=O)NCC(=O)N[C@@H](C)C(=O)NCC(=O)N[C@@H](CCCCN)C(=O)N[C@@H](CCCN=C(N)N)C(=O)N[C@H](C(=O)N[C@@H](Cc1ccccc1)C(=O)N[C@@H](CC(N)=O)C(=O)N[C@@H](C)C(=O)N[C@@H](C)C(=O)N[C@@H](CCC(=O)O)C(=O)N[C@@H](CCCCN)C(=O)N[C@@H](C)C(=O)N[C@@H](CC(C)C)C(=O)N1CCC[C@H]1C(=O)O)C(C)C [GGLKKLGKKLEGAGKRVFNAAEKALP]

- MIC [15]: 2.46 µM (≈ 4 µg/mL)
- MIC [16]: 4.92 µM (≈ 8 µg/mL)
- MIC [17]: 19.7 µM (≈ 32 µg/mL)
- MIC [18]: 7.38 µM (≈ 12 µg/mL)
- MIC [19]: 19.7 µM (≈ 32 µg/mL)
- MIC [20]: 4.92 µM (≈ 8 µg/mL)
- MIC [21]: 1.23 µM (≈ 2 µg/mL)
- MIC [22]: 19.7 µM (≈ 32 µg/mL)
- MIC [23]: 19.7 µM (≈ 32 µg/mL)
- MIC [24]: ≥ 39.4 µM
- MIC [25]: 118 µM (≈ 192 µg/mL)
SMILES: CC[C@H](C)[C@H](N)C(=O)N[C@@H](CCCCN)C(=O)N[C@@H](Cc1c[nH]c2ccccc12)C(=O)N[C@@H](CCCCN)C(=O)N[C@@H](C)C(=O)N[C@H](C(=O)N[C@@H](CC(C)C)C(=O)N[C@@H](CC(=O)O)C(=O)N[C@@H](C)C(=O)N[C@H](C(=O)N[C@@H](CCCCN)C(=O)N[C@@H](CCCCN)C(=O)N[C@H](C(=O)N[C@H](C(N)=O)[C@@H](C)CC)C(C)C)C(C)C)[C@@H](C)CC [IKWKAILDAVKKVI]
- MIC [26]: 9.85 µM (≈ 16 µg/mL)

- MIC [27]: 53.1 µM (≈ 80 µg/mL)
- MIC [28]: 13.3 µM (≈ 20 µg/mL)
- MIC [29]: ≥ 53.1 µM
- MIC [30]: 26.5 µM (≈ 40 µg/mL)
- MIC [31]: ≥ 53.1 µM
- MIC [32]: 26.5 µM (≈ 40 µg/mL)
- MIC [33]: ≥ 53.1 µM
- MIC [34]: 13.3 µM (≈ 20 µg/mL)
- MIC [35]: 26.5 µM (≈ 40 µg/mL)
- MIC [36]: ≥ 53.1 µM
- MIC [9]: 26.5 µM (≈ 40 µg/mL)
- MIC [37]: ≥ 53.1 µM
- MIC [25]: 26.5 µM (≈ 40 µg/mL)
- MIC [10]: 13.3 µM (≈ 20 µg/mL)
SMILES: CC[C@H](C)[C@H](N)C(=O)N[C@@H](CC(N)=O)C(=O)N[C@@H](CC(C)C)C(=O)N[C@@H](CCCCN)C(=O)N[C@@H](C)C(=O)N[C@H](C(=O)N[C@@H](C)C(=O)N[C@@H](C)C(=O)N[C@@H](CC(C)C)C(=O)N[C@H](C(=O)N[C@@H](CCCCN)C(=O)N[C@@H](CCCCN)C(=O)N[C@@H](CC(C)C)C(=O)N[C@@H](CC(C)C)C(=O)O)C(C)C)[C@@H](C)CC [INLKAIAALVKKLL]

- MIC [38]: 12.5 µM and 25 µM and 18.8 µM
SMILES: NCCCC[C@H](N)C(=O)N[C@@H](Cc1c[nH]c2ccccc12)C(=O)N[C@@H](Cc1c[nH]c2ccccc12)C(=O)N[C@@H](Cc1c[nH]c2ccccc12)C(=O)N[C@@H](CCCN=C(N)N)C(=O)N[C@@H](Cc1c[nH]c2ccccc12)C(N)=O [KWWWRW]

- MIC [27]: 41.2 µM (≈ 100 µg/mL)
- MIC [40]: 2.57 µM (≈ 6.25 µg/mL)
- MIC [41]: 2.57 µM (≈ 6.25 µg/mL)
- MIC [42]: 20.6 µM (≈ 50 µg/mL)
- MIC [43]: 5.15 µM (≈ 12.5 µg/mL)
SMILES: CC[C@H](C)[C@H](NC(=O)[C@H](CCCCN)NC(=O)[C@@H]1CCCN1C(=O)[C@H](CC(C)C)NC(=O)[C@H](Cc1ccccc1)NC(=O)[C@H](CC(N)=O)NC(=O)[C@H](C)NC(=O)[C@H](C)NC(=O)[C@H](CC(C)C)NC(=O)CNC(=O)[C@H](C)NC(=O)[C@H](CC(C)C)NC(=O)[C@H](CC(C)C)NC(=O)[C@@H]1CCCN1C(=O)[C@@H](N)CC(C)C)C(=O)N[C@@H](Cc1ccccc1)C(=O)N[C@@H](CS)C(=O)N[C@@H](CCCCN)C(=O)N[C@H](C(=O)N[C@H](C(=O)N[C@@H](CCCN=C(N)N)C(=O)N[C@@H](CCCCN)C(N)=O)[C@@H](C)O)[C@@H](C)CC [LPLLAGLAANFLPKIFCKITRK]
- MIC [39]: 5.15 µM (≈ 12.5 µg/mL)
